Measurements taken from patent publication US7371734B2, “Oligonucleotide compositions and their use for the modulation of immune responses” (Bioniche Life Sciences Inc., priority 2002, dated 2008).
Marks after values point to notes of the source that are not given here.

Tests used:
Format in all cases: cell-based
Human dendritic cells [1] = test: Induction of IFN-gamma production by DC (ELISA); conditions: 100 μg, 48 hours
Procedure: (§1) Human dendritic cells were obtained from Clonetics (San Diego, Calif., USA) and were cultured in the medium recommended by Clonetics. DC were obtained from three different individuals (see Table 1). Major histocompatability typing was performed on each of these individuals and several of the HLA (human leukocyte antigens) types are shown.
DC were seeded in 1.0 ml at 1.0×10^5 cells/ml in 6-well flat-bottomed tissue culture plates for 48 hours with 100 μg of6 base N1A, N1B, N2A, N2B, N3A, N3B, N4A, N4B, N5A, N5B, N6A, N6B, N7A or N7B polynucleotides. Production of IFN-gamma was determined in 100 μl of culture supernatant using a commercial ELISA (BioSource) after 48 hours of incubation. Results are expressed as the “fold” (x) increase in IFN-gamma production by treated DC compared to control cells.

Human dendritic cells [2] = test: Induction of IL-1beta production by DC (ELISA); conditions: 100 μg, 48 hours
Procedure: as §1
DC were seeded in 1.0 ml at 1.0×10^5 cells/ml in 6-well flat-bottomed tissue culture plates for 48 hours with 100 μg of 6 base N1A, N1B, N2A, N2B, N3A, N3B, N4A, N4B, N5A, N5B, N6A, N6B, N7A or N7B polynucleotides. Production of IL-1beta was determined in 100 μl of culture supernatant using a commercial ELISA (BioSource, Camarillo, Calif., USA) after 48 hours of incubation. Results are expressed as the “fold” (x) increase in IL-1beta production by treated DC compared to control cells.

Human dendritic cells [3] = test: CD86 levels at the DC cell surface (flow cytometry); conditions: 100 μg, 48 hours
Procedure: as §1
(§2) DC from individuals B and C were seeded in 1.0 ml at 1.0×10^5 cells/ml in 6-well flat-bottomed tissue culture plates for 48 hours with 100 μg of 6 base N1A, N1B, N2A, N2B, N3A, N3B, N4A, N4B, N5A, N5B, N6A, N6B, N7A or N7B polynucleotides. The level of CD86 at the cell surface was determined after 48 hours of incubation by flow cytometry using a PE-conjugated monoclonal antibody directed to CD86 (Serotec) and analyzed by CELLQuest Pro. Results are expressed as the percentage of CD86^hi DC following treatment.

Human dendritic cells [4] = test: Induction of IL-12 by sequences plus GM-CSF (ELISA); conditions: 100 μg, 48 hours
Procedure: as §1
DC from the individual B were seeded in 1.0 ml at 1.0×10^5 cells/ml in 6-well flat-bottomed tissue culture plates for 48 hours with 500 units of human recombinant GM-CSF (Clonetics) and 100 μg of 6 base polynucleotide N1A or polynucleotide N7A. Production of IL-12 was determined in 100 μl of culture supernatant using a commercial ELISA (BioSource) after 48 hours of incubation. Results are expressed as the “fold” (x) increase in IL-12 production by treated DC compared to control cells in absence or presence of recombinant GM-CSF.

Human dendritic cells [5] = test: MHC-II levels at the DC cell surface (flow cytometry); conditions: DC from individual B; 100 μg, 48 hours
Procedure: as §1
as §2, with “individual” for “individuals”, “B” for “B and C”, “N3B,” for “N3B, N4A, N4B,”, “MHC II” for “CD86”, “FITC-conjugated” for “PE-conjugated”, “MHC II^hi” for “CD86^hi”

Human dendritic cells [6] = test: CD40 levels at the DC cell surface (flow cytometry); conditions: 100 μg, 48 hours
Procedure: as §1
DC from individuals B and C were seeded in 1.0 ml at 1.0×10^5 cells/ml in 6-well flat-bottomed tissue culture plates for 48 hours with 100 μg of 6 base N1A, N1B, N2A, N2B, N3A, N3B, N4A, N4B, N5A, N5B, N6A, N6B, N7A or N7B polynucleotides. The level of CD40 at the cell surface was determined after 48 hours of incubation by flow cytometry (FACSCalibur system) using a FITC-conjugated monoclonal antibody directed to CD40 and analyzed by CELLQuest Pro (all from Becton Dickinson). Results are expressed as the percentage of CD40^hi DC following treatment. The term “CD40^hi” refers to a population of cells identified by flow cytometry as having higher than baseline expression of CD40.

Human dendritic cells [7] = test: CD80 levels at the DC cell surface (flow cytometry); conditions: 100 μg, 48 hours
Procedure: as §1
as §2, with “CD80” for “CD86”, “FITC-conjugated” for “PE-conjugated”, “CD80 (Serotec, Oxford, U.K.)” for “CD86 (Serotec)”, “CELLQuest.” for “CELLQuest Pro.”, “CD80^hi” for “CD86^hi”

Human dendritic cells [8] = test: Increase in cell size and granularity of DC (flow cytometry); conditions: 100 μg polynucleotide, 48 hours
Procedure: as §1
DC were seeded in 1.0 ml at 1.0×10^5 cells/ml in 6-well flat-bottomed tissue culture plates for 48 hours with 100 μg of 6 base N1A, N1B, N2A, N2B, N3A, N3B, N4A, N4B, N5A, N5B, N6A, N6B, N7A or N7B polynucleotides. Cell size (FCS: forward side scatter) and granularity (S SC: side light scatter) were determined by flow cytometry using a FACSCalibur and analyzed using the CELLQuest Pro software (both from Becton-Dickinson, San Diego, Calif., USA). Percentage of DC showing a FCS>500 units and a SSC>400 units have been determined after treatment with 3-OH, 5-OH polynucleotides for DC isolated from three different individuals.

Human dendritic cells [9] = test: Induction of IL-12 production by DC (ELISA); conditions: 100 μg, 48 hours
Procedure: as §1
DC were seeded in 1.0 ml at 1.0×10^5 cells/ml in 6-well flat-bottomed tissue culture plates for 48 hours with 100 μg of 6 base N1A, N1B, N2A, N2B, N3A, N3B, N4A, N4B, N5A, N5B, N6A, N6B, N7A or N7B polynucleotides. Production of IL-12 was determined in 100 μl of culture supernatant using a commercial ELISA (BioSource) after 48 hours of incubation. Results are expressed as the “fold” (x) increase in IL-12 production by treated DC compared to control cells.

Human dendritic cells [10] = test: Endocytosis of FITC-dextran by DC; conditions: DC from individual B, 100 μg, 24 hours, untreated control = 100
Procedure: as §1
DC from individual B were seeded in 1.0 ml at 1.0×10^5 cells/ml in 6-well flat-bottomed tissue culture plates for 24 hours with 1 mg/ml of FITC-dextran (20 kDa; Sigma-Aldrich) in the absence or presence of 100 μg of 6 base N2A, N2B, N3A, N3B, N5A, N5B, and N6B polynucleotides at 4° C. (control cell surface binding of FITC-dextran) and 37° C. (to assess endocytosis). Cells were washed three times with ice-cold phosphate buffered saline and analyzed by flow cytometry using CELLQuest Pro. Results are expressed as relative endocytic rate (normalized Δ Mean Fluorescence Value (Δ MFV)). Δ MFV=MFV of DC exposed to FITC-dextran at 37° C.−MFV of DC exposed to FITC-dextran at 4° C. Δ MFV=(ΔMFVsequence/ΔMFVcontrol)×100.

Substance	IFN-gamma production by DC (fold increase compared to untreated DC) (Human dendritic cells [1]; DC isolated from individual A) [fold]	IFN-gamma production by DC (fold increase compared to untreated DC) (Human dendritic cells [1]; DC isolated from individual B) [fold]	IFN-gamma production by DC (fold increase compared to untreated DC) (Human dendritic cells [1]; DC isolated from individual C) [fold]	IL-1beta production by DC (fold increase compared to untreated DC) (Human dendritic cells [2]; DC isolated from individual A) [fold]	IL-1beta production by DC (fold increase compared to untreated DC) (Human dendritic cells [2]; DC isolated from individual B) [fold]	IL-1beta production by DC (fold increase compared to untreated DC) (Human dendritic cells [2]; DC isolated from individual C) [fold]	The percentage of CD86^hi DC following treatment (Human dendritic cells [3]; DC from individual B)	The percentage of CD86^hi DC following treatment (Human dendritic cells [3]; DC from individual C)	The percentage of MHC-II^hi DC following treatment (Human dendritic cells [5])	The percentage of CD40^hi DC following treatment (Human dendritic cells [6]; DC from individual B)	The percentage of CD40^hi DC following treatment (Human dendritic cells [6]; DC from individual C)	The percentage of CD80^hi DC following treatment (Human dendritic cells [7]; DC from individual B)	The percentage of CD80^hi DC following treatment (Human dendritic cells [7]; DC from individual C)	Percentage of DC showing a FCS > 500 units and a SSC > 400 units (Human dendritic cells [8]; DC isolated from individual A) [%]	Percentage of DC showing a FCS > 500 units and a SSC > 400 units (Human dendritic cells [8]; DC isolated from individual B) [%]	Percentage of DC showing a FCS > 500 units and a SSC > 400 units (Human dendritic cells [8]; DC isolated from individual C) [%]	IL-12 production by DC (fold increase compared to untreated DC) (Human dendritic cells [9]; DC isolated from individual A) [fold]	IL-12 production by DC (fold increase compared to untreated DC) (Human dendritic cells [9]; DC isolated from individual B) [fold]	IL-12 production by DC (fold increase compared to untreated DC) (Human dendritic cells [9]; DC isolated from individual C) [fold]	Relative endocytic rate (normalized Δ MFV) (Human dendritic cells [10])	other results
5′GTGTGT3′ [N1A]	0.8	1.0	1.0	1.0	1.2	1.0	10%	14%	32** %	21%	24** %	45** %	41** %	6	9	18	15.9	17.8	2.1		IL-12 production by DC from the individual B (fold increase compared to untreated DC) (Human dendritic cells [4]; +GM-CSF (500 units human recombinant)): 15.3 fold; IL-12 production by DC from the individual B (fold increase compared to untreated DC) (Human dendritic cells [4]; w/o GM-CSF): 14.7 fold
5′GGTGGG3′ [N2A]	1.0	1.1	1.0	1.0	1.0	1.0	16%	26%	42** %	27** %	17%	25** %	18%	6	14	21	7.9	6.8	1.6	334	
5′GGGGGG3′ [N5B]	3.5	5.0	1.5	5.0	7.5	3.7	26** %	31** %	18%	21%	15%	3%	10%	53	16	23	7.5	17.8	15.0	151	
5′GGTGGG3′ [N2B]	1.2	1.2	1.0	1.2	1.4	1.0	31** %	53** %	30%	22%	37** %	7%	8%	42	38	50	1.3	6.0	2.5	148	
